Measurements published in patent publication US20090093454A1, “Chemical Compounds” (priority 2005, published 2009).

Tested on: HIV-1
Assay: HIV infectivity assay (Table 2, strain not given)
Format: cell-based
Conditions: Human immunodeficiency virus 1, read-out: Activity Level
Protocol: (§1) Compounds were profiled against two HIV-1 viruses, the M-tropic (CCR5 utilizing) Ba-L strain and the T-tropic (CXCR4 utilizing) IIIB strain. Both viruses were propagated in human peripheral blood lymphocytes. Compounds were tested for there ability to block infection of the HOS cell line (expressing hCXCR4/hCCR5/hCD4/pHIV-LTR-luciferase) by either HIV-1 Ba-L or HIV-1, IIIB. Compound cytotoxicity was also examined in the absence of virus addition.
(§2) HOS cells (expressing hCXCR4/hCCR5/hCD4/pHIV-LTR-luciferase) were harvested and diluted in Dulbeccos modified Eagles media supplemented with 2% FCS and non-essential amino acid to a concentration of 60,000 cells/ml. The cells were plated into 96-well plates (100 ul per well) and the plates were placed in a tissue culture incubator (37° C.; 5% CO2/95% air) for a period of 24 h.
Subsequently, 50 ul of the desired drug solution (4 times the final concentration) was added to each well and the plates were returned to the tissue culture incubator (37° C.; 5% CO2/95% air) for 1 h. Following this incubation 50 ul of diluted virus was added to each well (approximately 2 million RLU per well of virus). The plates were returned to the tissue culture incubator (37° C.; 5% CO2/95% air) and were incubated for a further 96 h.
Following this incubation the endpoint for the virally infected cultures was quantified following addition of Steady-Glo Luciferase assay system reagent (Promega, Madison, Wis.). Cell viability or non-infected cultures was measured using a CellTiter-Glo luminescent cell viability assay system (Promega, Madison, Wis.). All luminescent readouts are performed on a Topcount luminescence detector (Packard, Meridien, Conn.).
as §1, with “Ba-L was” for “Both viruses were”, “either peripheral blood lymphocytes or SupT1/CCR5+/CXCR4+ cells. IIIB was propagated in” for “human”, “their” for “there”
as §2, with “FCS” for “FCS and non-essential amino acid”, “120,000” for “60,000”, “(50 μl” for “(100 ul”, “(370°” for “(37°”
Subsequently, 50 μl of the desired drug solution (2 times the final concentration) was added to each well and the plates were returned to the tissue culture incubator (370° C.; 5% CO2/95% air) for 1 h. Following this incubation, 60 μl of diluted virus (4 times the final concentration) was added to 60 μl of 2× the final desired concentration of the compound and 100 μl of this compound/virus mix was added to each well (approximately 2 million RLU per well of virus). The plates were returned to the tissue culture incubator (370° C.; 5% CO2/95% air) and were incubated for a further 96 h.

| SMILES | IC50 |
| --- | --- |
| c1ccc(Cn2c(CN3CCC[C@H]4CCc5cccnc5[C@H]43)nc3ccccc32)nc1 (racemic) [Example 45, (cis) 1-{[1-(2-pyridinylmethyl)-1H-benzimidazol-2-yl]methyl}-1,2,3,4,4a,5,6,10b-octahydro-1,10-phenanthroline] | 500 to 10000 nM |
| N[C@H]1CCN(c2cccc3nc(CN4CCC[C@H]5CCc6cccnc6[C@H]54)cn23)C1 [Example 107, (3S)-1-{2-[(4aR,10bS)-3,4,4a,5,6,10b-hexahydro-1,10-phenanthrolin-1(2H)-ylmethyl]imidazo[1,2-a]pyridin-5-yl}-3-pyrrolidinamine] | < 100 nM |
| CN1CCN(c2cccc3nc(CN4CCC[C@@H]5CCCc6cccnc6[C@H]54)cn23)CC1 [Example 123, (4aS,11bS)-1-{[5-(4-methyl-1-piperazinyl)imidazo[1,2-a]pyridin-2-yl]methyl}-2,3,4,4a,5,6,7,11b-octahydro-1H-pyrido[3′,2′:6,7]cyclohepta[1,2-b]pyridine] | < 100 nM |
| NCCCCn1c(CN2CCC[C@@H]3CCc4cccnc4[C@H]32)nc2ccccc21 (relative stereo) [Example 37, (trans) 4-[2-(3,4,4a,5,6,10b-hexahydro-1,10-phenanthrolin-1(2H)-ylmethyl)-1H-benzimidazol-1-yl]-1-butanamine] | < 100 nM |
| CNC1CCN(c2cccc3nc(CN4CCC[C@H]5CCc6cccnc6[C@H]54)cn23)C1 (stereo partly drawn) [Example 95, 1-{2-[(4aR,10bS)-3,4,4a,5,6,10b-hexahydro-1,10-phenanthrolin-1(2H)-ylmethyl]imidazo[1,2-a]pyridin-5-yl}-N-methyl-3-pyrrolidinamine] | < 100 nM |
| c1cnc2c(c1)CC[C@@H]1CCCN(Cc3cn4c(N5CCC(N6CCCCC6)CC5)cccc4n3)[C@H]21 [Example 71, (4aR,10bS)-1-{[5-(1,4′-bipiperidin-1′-yl)imidazo[1,2-a]pyridin-2-yl]methyl}-1,2,3,4,4a,5,6,10b-octahydro-1,10-phenanthroline] | < 100 nM |
| CN1CCCN(c2cccc3nc(CN4CCC[C@H]5CCc6cccnc6[C@H]54)cn23)CC1 [Example 93, (4aR,10bS)-1-{[5-(4-methylhexahydro-1H-1,4-diazepin-1-yl)imidazo[1,2-a]pyridin-2-yl]methyl}-1,2,3,4,4a,5,6,10b-octahydro-1,10-phenanthroline] | < 100 nM |
| CN(C)C1CCN(c2cccc3nc(CN4CCC[C@H]5CCc6cccnc6[C@H]54)cn23)C1 (stereo partly drawn) [Example 83, 1-{2-[(4aR,10bS)-3,4,4a,5,6,10b-hexahydro-1,10-phenanthrolin-1(2H)-ylmethyl]imidazo[1,2-a]pyridin-5-yl}-N,N-dimethyl-3-pyrrolidinamine] | < 100 nM |
| CN(C)CCNc1cccc2nc(CN3CCC[C@H]4CCc5cccnc5[C@H]43)cn12 [Example 90, N′-{2-[(4aR,10bS)-3,4,4a,5,6,10b-hexahydro-1,10-phenanthrolin-1(2H)-ylmethyl]imidazo[1,2-a]pyridin-5-yl}-N,N-dimethyl-1,2-ethanediamine] | 100 to 500 nM |
| c1cnc2c(c1)CC[C@@H]1CCCN(Cc3nc4ccccc4n3CCCN3CCOCC3)[C@H]21 (racemic) [Example 44, (cis) 1-({1-[3-(4-morpholinyl)propyl]-1H-benzimidazol-2-yl}methyl)-1,2,3,4,4a,5,6,10b-octahydro-1,10-phenanthroline] | 100 to 500 nM |
| c1cnc2c(c1)CC[C@@H]1CCCN(Cc3cn4c(NC5CCNC5)cccc4n3)[C@H]21 (stereo partly drawn) [Example 109, 2-[(4aR,10bS)-3,4,4a,5,6,10b-hexahydro-1,10-phenanthrolin-1(2H)-ylmethyl]-N-3-pyrrolidinylimidazo[1,2-a]pyridin-5-amine] | 100 to 500 nM |
| CN1CCN(c2cccc3nc(CN4CCC[C@H]5CCc6cccnc6[C@H]54)[nH]c23)CC1 [Example 48, (4aR,10bS)-1-{[4-(4-methyl-1-piperazinyl)-1H-benzimidazol-2-yl]methyl}-1,2,3,4,4a,5,6,10b-octahydro-1,10-phenanthroline] | < 100 nM |
| CN(C)CCCn1cncc1CN1CCC[C@H]2CCc3cccnc3[C@H]21 [Example 51b, (3-{5-[(4aR,10bS)-3,4,4a,5,6,10b-hexahydro-1,10-phenanthrolin-1(2H)-ylmethyl]-1H-imidazol-1-yl}propyl)dimethylamine] | 500 to 10000 nM |
| CN(C)CC1CCN(c2cccc3nc(CN4CCC[C@H]5CCc6cccnc6[C@H]54)cn23)CC1 [Example 86, [(1-{2-[(4aR,10bS)-3,4,4a,5,6,10b-hexahydro-1,10-phenanthrolin-1(2H)-ylmethyl]imidazo[1,2-a]pyridin-5-yl}-4-piperidinyl)methyl]dimethylamine] | < 100 nM |
| CN(C)CCCn1c(CN2CCC[C@@H]3CCc4cccnc4[C@H]32)nc2ccccc21 (relative stereo) [Example 40, (trans) 3-[2-(3,4,4a,5,6,10b-hexahydro-1,10-phenanthrolin-1(2H)-ylmethyl)-1H-benzimidazol-1-yl]-N,N-dimethyl-1-propanamine] | 100 to 500 nM |
| CN1CCN(c2cccc3nc(CN4CCC[C@H]5CCc6cccnc6[C@H]54)c(CN4CCOCC4)n23)CC1 [Example 59, (4aR,10bS)-1-{[5-(4-methyl-1-piperazinyl)-3-(4-morpholinylmethyl)imidazo[1,2-a]pyridin-2-yl]methyl}-1,2,3,4,4a,5,6,10b-octahydro-1,10-phenanthroline] | < 100 nM |
| c1cnc2c(c1)CC[C@@H]1CCCN(Cc3cn4c(N5CCN6CCC[C@H]6C5)cccc4n3)[C@H]21 [Example 106, (4aR,10bS)-1-({5-[(8aS)-hexahydropyrrolo[1,2-a]pyrazin-2(1H)-yl]imidazo[1,2-a]pyridin-2-yl}methyl)-1,2,3,4,4a,5,6,10b-octahydro-1,10-phenanthroline] | < 100 nM |
| CCN(CC)Cc1c(CN2CCC[C@H]3CCc4cccnc4[C@H]32)nc2cccc(N3CCN(C)CC3)n12 [Example 55, N-ethyl-N-{[2-[(4aR,10bS)-3,4,4a,5,6,10b-hexahydro-1,10-phenanthrolin-1(2H)-ylmethyl]-5-(4-methyl-1-piperazinyl)imidazo[1,2-a]pyridin-3-yl]methyl}ethanamine] | < 100 nM |
| CN(C)CCCn1c(CN2CC[C@@H]3CCc4cccnc4[C@H]32)nc2ccccc21 (racemic) [Example 132, (trans) 3-[2-(2,3,3a,4,5,9b-hexahydro-1H-pyrrolo[3,2-h]quinolin-1-ylmethyl)-1H-benzimidazol-1-yl]-N,N-dimethyl-1-propanamine] | 100 to 500 nM |
| CN1CCC(N(C)c2cccc3nc(CN4CCC[C@H]5CCc6cccnc6[C@H]54)cn23)CC1 [Example 74, 2-[(4aR,10bS)-3,4,4a,5,6,10b-hexahydro-1,10-phenanthrolin-1(2H)-ylmethyl]-N-methyl-N-(1-methyl-4-piperidinyl)imidazo[1,2-a]pyridin-5-amine] | < 100 nM |
| c1cnc2c(c1)CC[C@@H]1CCCN(Cc3c[nH]cn3)[C@H]21 [Example 50, (4aR,10bS)-1-(1H-imidazol-4-ylmethyl)-1,2,3,4,4a,5,6,10b-octahydro-1,10-phenanthroline] | 500 to 10000 nM |
| c1cnc2c(c1)CC[C@@H]1CCCN(Cc3cn4c(N5CCC(N6CCCC6)CC5)cccc4n3)[C@H]21 [Example 72, (4aR,10bS)-1-({5-[4-(1-pyrrolidinyl)-1-piperidinyl]imidazo[1,2-a]pyridin-2-yl}methyl)-1,2,3,4,4a,5,6,10b-octahydro-1,10-phenanthroline] | < 100 nM |
| CNCCCN(C)c1cccc2nc(CN3CCC[C@H]4CCc5cccnc5[C@H]43)cn12 [Example 81, N-{2-[(4aR,10bS)-3,4,4a,5,6,10b-hexahydro-1,10-phenanthrolin-1(2H)-ylmethyl]imidazo[1,2-a]pyridin-5-yl}-N,N′-dimethyl-1,3-propanediamine] | < 100 nM |
